Results on 1 sequence are retold here after US20240327459A1, “PEPTIDE FRAGMENTS FOR TREATMENT OF DIABETES” (Follicum AB, priority 2018, published 2024).

The subject of experiment [1] is mouse pancreatic islets. Briefly: Insulin secretion from isolated mouse pancreatic islets (Examples 5 and 7). Format: cell-based. The note with it: 60 min. As to the method: Mouse pancreatic islets were isolated from 8-week old C57BL/6J male mice (Taconic). Mice were sacrificed by an overdose of isoflurane and cervical dislocation. 3 ml of 0.9 U/ml collagenase P was injected into the pancreatic duct to inflate the pancreas. The Pancreas was then removed and collagen digested for 19 min at 37° C. The samples Were vigorously shaken to disrupt the tissue. The digest was transferred into ice cold Hank's Balanced Salt Solution (HBSS) with Ca^2+ and Mg^2+. The suspension was allowed to sit for 10 min to allow the islet to sink, and the islets were washed in fresh HBSS four times. The islets were then hand-picked and sorted according to size. Islets (n=3 per well in a 96 well plate) were pre-incubated in KRB buffer during 10 min 37° C., pH 7.4, supplemented with 10 mM HEPES, 0.1% bovine serum albumin. After pre-incubation, the buffer was changed and islets were incubated at different test conditions in new KRB buffer with 0.1% bovine serum albumin (non-treated ctrl, FOL-005 peptide, or GLP-1) for 60 min at 37° C. Immediately after incubation, an aliquot of the buffer was removed and frozen for subsequent assay of insulin.
Mouse pancreatic islets were isolated from 8-week old C57BL/6J male mice as described under example 5. The islets were then hand-picked and sorted according to size. Islets (n=5 per well in a 96 well plate) were pre-incubated in 200 μl KRB buffer during 10 min 37° C., pH 7.4, supplemented with 10 mM HEPES, 0.1% bovine serum albumin. Following pre-incubation, the buffer was changed and islets were incubated in different test conditions in new KRB buffer with 0.1% bovine serum albumin (non-treated ctrl, FOL-014 peptide, and GLP-1) for 60 min at 37° C. Immediately after incubation, an aliquot of the buffer was removed and frozen for subsequent assay of insulin.

Experiment [2] deals with INS-1 β-cells. The experiment is described as follows: Insulin secretion from INS-1 cells (Examples 4 and 6). Format: cell-based, rat. The note with it: Example 6, 6 μM peptide, KRB buffer, 60 min, vs unstimulated control cells. The method, then: To investigate the stimulatory effect of FOL-005 on insulin secretion, INS-1 β-cells were used in the following experiments. Cells were seeded overnight in cRPMI and then washed with PBS before pre-incubation for 60 min at 37° C. in Krebs-Ringer bicarbonate buffer (KRB), pH 7.4, supplemented with 10 mM HEPES, 0.1% bovine serum albumin. After pre-incubation, the buffer was changed and the INS-1 cells were incubated at different test conditions (0 mM, 5 mM or 20 mM glucose) and stimulated with peptide FOL-005 or FOL-015 (SEQ ID NO: 158) or left untreated during 60 min at 37° C. Immediately after incubation, an aliquot of the buffer was removed and frozen for subsequent assay of insulin with an insulin radioimmunoassay kit.
INS-1 β-cells were used to investigate the stimulatory effect of FOL-014 on insulin secretion. Cells were seeded overnight and then washed with PBS before pre-incubation for 60 min at 37° C. in Krebs-Ringer bicarbonate buffer (KRB), pH 7.4, supplemented with 10 mM HEPES, 0.1% bovine serum albumin. After pre-incubation, the buffer was changed and the INS-1 cells were incubated in new KRB buffer supplemented with 10 mM HEPES, 0.1% bovine serum albumin and stimulated with peptide FOL-014 or left untreated during 60 min at 37° C. Immediately after incubation, an aliquot of the buffer was removed and frozen for subsequent assay of insulin.

The test system of experiment [3] is human pancreatic β-cell line 1.2B4. Briefly: Insulin secretion from 1.2B4 human β-cells. It counts as cell-based. As to conditions: 100 nM peptide, 16.7 mM glucose, 60 minutes. The method, then:
In order to test the effect of FOL-014 and FOL-056 in human cells, the human pancreatic β-cell line 1.2B4 were cultured at 37° C. and 5% CO2 in RPMI 1640 supplemented with 10% fetal bovine serum, 50 IU/mL penicillin, 50 mg/L streptomycin, 1 mM L-glutamine. 1.2B4 cells were seeded in 24-well plates in RPMI medium and following overnight incubation, the medium was removed before pre-incubation for 40 min at 37° C. in Krebs-Ringer bicarbonate buffer, pH 7.4, supplemented with 10 mM HEPES, 0.1% bovine serum albumin and 1.0 mM glucose. Following pre-incubation, the buffer was exchanged with fresh Krebs-Ringer buffer as described above and supplemented with specific glucose concentrations, 1 mM or 16.7 mM. FOL-014, FOL-056 or Liraglutide was added at a concentration of 100 nM in the presence of 16.7 mM glucose. Immediately after 60 minutes incubation at 37° C., an aliquot of the buffer was removed and frozen for subsequent insulin ELISA assay. (FIG. 18)

The test system of experiment [4] is INS-1 cells. Briefly: Proliferation of INS-1 cells ([methyl-3H] thymidine incorporation). As to conditions: wells coated with peptide and blocked with BSA, vs BSA coated control wells. It counts as cell-based, rat. The method, then:
To investigate if FOL-005 and FOL-014 could induce proliferation of β-cells we used INS-1 cells. Rat INS-1 cells were seeded in 96-well plates in RPMI medium with supplement and after 2 hours the medium was changed to RPMI without supplement. During the proliferation experiment the cells were incubated at different test conditions (FOL-005, FOL-014, coated or in solution, 48 h incubation) and during the last 20 hours of culture period the cells were pulsed with 1 μ Ci/well of [methyl-3H] thymidine. The cells were then harvested onto glass fiber filters using a FilterMate harvester. The filters were air dried, and the bound radioactivity was measured using a liquid scintillation counter. To study whether FOL-005 influenced β-cell proliferation, INS-1 cells were treated with increasing amounts of soluble FOL-005 (0.06-6 μM) during 48 hours and proliferation was measured with radiolabeled thymidine incorporation into newly synthesized DNA.
(In general: Dividing cells build labelled thymidine or BrdU into new DNA.)

Experiment [5] concerns BB lyp/lyp rats. Briefly: Onset of type 1 diabetes in BB lyp/lyp rats. Format: in vivo, rat. The note with it: 100 nmol/kg subcutaneously 3 times/week from day 40, vs placebo. The method, then:
BB lyp/lyp rats were randomized for placebo (sodium chloride, 9 mg/ml) or FOL-014 treatment 3 times/week from day 40 until onset of type 1 diabetes, defined as plasma glucose levels ≥11.1 mM. The dose of 100 nmol/kg FOL-014 peptide in saline or placebo (saline) was administered subcutaneously and the animals were terminated immediately upon exceeding critical plasma glucose levels. The difference between FOL-014 treated animals and animals receiving placebo treatment was significant both when expressed as average age for onset of type 1 diabetes (FIG. 10A) and when described as percentage of animals developing type 1 diabetes per day (FIG. 10B).

For experiment [6], the system named is wild type C57bl/6 mice. The experiment is described as follows: Intraperitoneal glucose tolerance test (IPGTT). As to conditions: 15 min before 2 g glucose/kg ip, vs saline control. Format: in vivo, mouse. The method, then: Whole blood was collected for glucose and insulin measurements from 10-week-old wild type maleC57bl/6 mice. After a 4 hour fast, the mice were divided into three groups and given an intraperitoneal injection (ip) of either saline, 30 nmol/kg peptide (FIG. 9A) or 200 nmol/kg peptide (FIG. 9B). 15 min after the FOL-014 or saline (control) injections, the mice were administered 2 g of glucose/kg ip. Blood glucose concentrations were measured at 5, 15, 30, 45 and 60 minutes after the glucose injection. Statistical calculations were performed using student's t-test. […] In addition, the difference was significant at 15, 30 and 45 minutes.

“Also recorded” adds a separate entry of the source.

As for “KPLAEIDSIELSYGIK (MISC_FEATURE - peptide, FOL-014)”, the insulin secretion result in experiment [1] (Example 7, 0.6 μM) is given as “did not affect insulin secretion; also recorded: had no effect on insulin secretion”; in experiment [1] (Example 7, 6 μM, vs unstimulated control islets) it was “secreted more insulin compared to unstimulated control islets”; in experiment [2] it was “secreted more insulin compared to unstimulated control cells”; in experiment [3], “increase the insulin secretion capacity in 1.2B4 human β-cells; also recorded: significantly increased the insulin secretion as compared with cells treated with an un-supplemented high glucose buffer”. The “proliferation of INS-1 cells” value in experiment [4] is recorded as “stimulated proliferation compared to control; also recorded: induced more proliferation compared to only BSA coated wells”. In addition, the “onset of type 1 diabetes” value in experiment [5] was “significantly delayed the onset of type-1 diabetes; also recorded: significant delay in the onset of diabetes”. For the same sequence, the plasma glucose levels result is “lowered the plasma glucose levels with a significant effect at 45 minutes after the glucose injection” in experiment [6] (30 nmol/kg ip); “significantly lowered the plasma glucose levels as compared to the control when measured as area under the curve; also recorded: significantly lowered the plasma glucose levels as compared to the control at 15 minutes, 30 minutes and 45 minutes” in experiment [6] (200 nmol/kg ip).
